Laboratory results as given in article PMC3660367, “MARCKS Protein Is Phosphorylated and Regulates Calcium Mobilization during Human Acrosomal Exocytosis” (PLoS ONE, 2013).
No end group written: not given here.

Tested on: intracellular calcium levels in human spermatozoa
Assay: Intracellular calcium measurement of human spermatozoa (Fluo-3-AM)
Assay type: cell-based
Settings: intact sperm, Fluo-3-AM 2 µM; 4 µM ED-TMR 30 min before 15 µM progesterone; three experiments
Method: Calcium levels were measured in sperm suspensions using the intracellular fluorescent probe Fluo-3-AM. Motile sperm were adjusted to a concentration of 5–10 ×10^6 cells/ml and loaded with the permeable form of the dye (Fluo-3-AM, 2 µM) for 30 min at 37°C. Cells were washed once and resuspended in HTF. Sperm suspensions were transferred to thermostated (37°C) cuvettes for fluorescence measurements and stirred constantly. At the indicated times, 15 µM progesterone was added to the samples. When indicated, sperm where incubated 30 min in presence of 4 µM of the permeable tetramethylrhodamine-labeled MARCKS ED (ED-TMR) before adding progesterone. Fluo-3 fluorescence (λEx = 505 nm, λEm = 525 nm emission) was recorded in an AMINCO-Bowman Series 2 (AB2) spectrofluorometer. […] To calibrate the maximal response, intracellular calcium concentration ([Ca^2+]i) was determined using Triton X-100 (0.1%). […]
Figure 5 Assessing MARCKS function on acrosomal exocytosis in non-permeabilized sperm. […] The increase in fluorescence is expressed as (F/F0)-1 ((maximum fluorescence intensity/initial fluorescence)-1) versus time in seconds. […] (D) Quantification of three independent experiments. […] Phosphorylated MARCKS was detected by Western blot assay using an anti-phospho-MARCKS antibody. […] Phosphorylated MARCKS was detected by Western blot assay using an anti-phospho-MARCKS antibody. […]

KKRFSFKKSFKL (also: tetramethylrhodamine conjugate, site not given here) [ED-TMR, commercial (Anaspec) tetramethylrhodamine-conjugated peptide … from residues 154–165 of human MARCKS ED]
effect on the increase in calcium levels caused by progesterone: significantly diminished
